This passage reports EC50 results from US20080131534A1, “USE OF A PLANT EXTRACT OR PLANT JUICE” (Melbrosin International Produktions- und Vertriebs GesmbH & …, priority 2006, published 2008).

In this experiment the target is T1, PPAR-gamma (Homo sapiens, UniProt P37231).
T1 construct: purchased Invitrogen
T1 sequence (P37231 238-503 limits assumed): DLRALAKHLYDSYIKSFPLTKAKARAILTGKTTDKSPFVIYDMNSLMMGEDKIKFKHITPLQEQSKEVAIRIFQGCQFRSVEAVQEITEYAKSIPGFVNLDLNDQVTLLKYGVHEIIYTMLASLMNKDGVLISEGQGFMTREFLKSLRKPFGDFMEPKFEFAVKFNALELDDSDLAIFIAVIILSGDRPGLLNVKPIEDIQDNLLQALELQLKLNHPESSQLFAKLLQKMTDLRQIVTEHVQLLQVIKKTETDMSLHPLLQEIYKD
The experiment can be described thus: Polar Screen PPAR Competitive Assay (fluorescence polarization ligand binding).

Where [1] appears, read: Table 1, result in words, *tested to a concentration of 0.1 M.
Where [2] appears, read: Table 1, tested substances, read-out: EC50.
Setting [3] is: Table 3, active substances in Oregano, read-out: EC50.

For orientation: EC50 means the concentration that produces a half-maximal response.

Read-outs that look alike come from different tables or passages of the source.

Experimental: The clear supernatant was further diluted by DMSO and then binding to PPARγwas tested by Peroxisome Proliferator-Activated Receptor-gamma Competitor Assay Kit, Green (Invitrogen, Carlsbad, Calif.).
PPAR-gamma-LBD and the fluorescent PPAR-gamma ligand (Fluormone™ PPAR Green) form a PPAR-gamma-LBD/Fluormone™ PPAR-gamma Green complex which has a high polarization value. If a competitor of PPAR-gamma is added the fluorescent ligand is displaced. This causes that the Fluoromone is free in solution and tumbles rapidly during its fluorescence lifetime which results in a low polarisation value.
1 μl of test compounds, which was dissolved and diluted in DMSO, was transferred into a microwell plate. Complete screening buffer was prepared by addition of 0.5 μl DTT (1M) to 1 ml PPAR Green Screening Buffer. 19 μl of this buffer was added to each well of microwell plate. […] 20 μl of this solution was added to each well. The plate is covered to protect the reagents from light and incubated for two hours at room temperature.
Data of the ligand binding assay were calculated in the following way: Polarization values were plotted against the concentration of test compound. The curve was fitted using a logistic dose-response model from Table Curve 2D software (Jandel Scientific). The used function was:

As to `CCCCCC(C)=O` [2-Heptanon], the EC50 entry under setting [1] is on record as “does not bind*”.

In the case of `O=C(/C=C/c1ccccc1O)c1ccccc1` [2-Hydroxychalcone], the EC50 under setting [2] worked out at 2.9 µM.

`O=C(/C=C/c1ccccc1)c1ccccc1O` [2′-Hydroxychalcone] yielded a concentration for a half-maximal effect (EC50) of 20 µM.

In the case of `O=C(/C=C/c1ccccc1)c1ccccc1O` [2′-OH-Chalcone], the EC50 result (Table 1, result in words) was “does not bind”.

Turning to `O=c1c(O)c(-c2ccccc2)oc2ccccc12` [3-Hydroxyflavon], the EC50 under setting [2] was more than 500 µM.

In the case of `O=c1cc(-c2ccc(O)cc2)oc2cc(OC3O[C@H](CO)[C@@H](O)[C@H](O)[C@H]3O)cc(O)c12` (stereo partly shown) [Apigenin-7Glycoside], the EC50 under setting [3] was more than 500 µM.

As for `O=c1cc(-c2ccc(O)cc2)oc2cc(O)cc(O)c12` [Apigenin], the EC50 amounted to 104 µM under setting [2] and 104 µM under setting [3].

As for `COc1ccc(-c2coc3cc(O)cc(O)c3c2=O)cc1` [Biochanin A], the EC50 reads like this: under setting [2], 20 µM; under setting [3], 20 µM.

Consider `O=C(Nc1ccccc1)c1cc([N+](=O)[O-])ccc1Cl` [CW9662, 2-Chloro-5-nitrobenanilide, reference compound], for which, under setting [2], the EC50 was 0.0107 µM.

Turning to `O=C(O)/C=C/c1ccc(O)c(O)c1` [Caffeic acid], the EC50 result under setting [1] is recorded as “does not bind*”.

Consider `COc1cc(CNC(=O)CCCC/C=C/C(C)C)ccc1O` [Capsaicin], for which the EC50 under setting [2] was more than 500 µM.

On to `O=CC=Cc1ccccc1` [Cinnamaldehyde], for which the concentration for a half-maximal effect (EC50) under setting [2] is 10.4 µM.

Consider `O=c1oc2cc(O)ccc2c2oc3cc(O)ccc3c12` [Coumestrol], for which, under setting [2], the EC50 was determined as 8.5 µM.

Take `COc1cc(/C=C/C(=O)CC(=O)/C=C/c2ccc(O)c(OC)c2)ccc1O` [Curcumin]: for the setting “Table 1, result in words”, the EC50 result is reported as “does not bind”.

As for `O=c1c(-c2ccc(O)cc2)coc2cc(O)ccc12` [Daidzein], under setting [2], the EC50 is 470 µM.

In the case of `O=c1c(-c2ccc(O)cc2)coc2cc(O[C@@H]3O[C@H](CO)[C@@H](O)[C@H](O)[C@H]3O)ccc12` [Daidzin], under setting [1], the EC50 result was “does not bind*”.

Consider `C=CCSCC=C` [Diallylsulfide], for which the EC50 result under setting [1] is recorded as “does not bind*”.

On to `COc1ccc(-c2cc(=O)c3c(O)cc(O[C@@H]4O[C@H](CO[C@@H]5O[C@@H](C)[C@H](O)[C@@H](O)[C@H]5O)[C@@H](O)[C@H](O)[C@H]4O)cc3o2)cc1O` [Diosmin], for which the EC50 entry under setting [1] is given as “does not bind*”.

Regarding `OC[C@H](Cc1cccc(O)c1)[C@H](CO)Cc1cccc(O)c1` [Enterodiol], the concentration for a half-maximal effect (EC50) under setting [2] is more than 500 µM.

On to `O=C1OC[C@H](Cc2cccc(O)c2)[C@H]1Cc1cccc(O)c1` [Enterolacton], for which the EC50 under setting [2] was more than 500 µM.

As for `Oc1cc(O)c2c(c1)O[C@H](c1ccc(O)c(O)c1)[C@H](O)C2` [Epicatechin], the EC50 under setting [2] is more than 500 µM.

For the compound `Oc1ccc([C@H]2COc3cc(O)ccc3C2)cc1` [Equol], the half-maximal effective concentration (EC50) under setting [2] was found to be 60 µM.

Consider `O=C1C[C@@H](c2ccc(O)c(O)c2)Oc2cc(O)cc(O)c21` [Eriodictyol], for which the 50% effective concentration (EC50) by setting is: under setting [2], 66 µM; under setting [3], 66 µM.

Regarding `C[C@]12CC[C@@H]3c4ccc(O)cc4CC[C@H]3[C@@H]1CCC2=O` [Estron], the EC50 result under setting [1] was “does not bind*”.

On to `CCOC(=O)C=Cc1ccccc1` [Ethylcinnamate], for which the EC50 under setting [2] is 2700 µM.

`C=CCc1ccc(O)c(OC)c1` [Eugenol]: under setting [2], the EC50 was found to be 420 µM.

With `COc1cc(/C=C/C(=O)O)ccc1O` [Ferrulic acid], the EC50 entry (Table 1, result in words) is recorded as “does not bind”.

On to `COc1ccc(-c2coc3cc(O)ccc3c2=O)cc1` [Formononetin], for which the EC50 entry under setting [1] is “does not bind*”.

In the case of `O=c1c(O)c(-c2ccccc2)oc2cc(O)cc(O)c12` [Galangin], the EC50 under setting [2] amounted to 143 µM.

Compound `O=C(O)c1cc(O)c(O)c(O)c1` [Gallic acid] returned an EC50 of 128 µM.

For the compound `O=c1c(-c2ccc(O)cc2)coc2cc(O)cc(O)c12` [Genistein], the half-maximal effective concentration (EC50) worked out at 22 µM.

For the compound `O=c1c(-c2ccc(O)cc2)coc2cc(O[C@@H]3O[C@H](CO)[C@@H](O)[C@H](O)[C@H]3O)cc(O)c12` [Genistin], the EC50 result under setting [1] is listed as “does not bind*”.

Turning to `COc1ccc([C@@H]2CC(=O)c3c(O)cc(O[C@@H]4O[C@H](CO[C@@H]5O[C@@H](C)[C@H](O)[C@@H](O)[C@H]5O)[C@@H](O)[C@H](O)[C@H]4O)cc3O2)cc1O` [Hesperidin], the EC50 under setting [2] is more than 500 µM.

Regarding `O=c1c(O[C@@H]2O[C@H](CO)[C@H](O)[C@H](O)[C@H]2O)c(-c2ccc(O)c(O)c2)oc2cc(O)cc(O)c12` [Hyperoside], under “Table 1, result in words”, the concentration for a half-maximal effect (EC50) result is on record as “does not bind”.

`OCc1c[nH]c2ccccc12` [Indol-3-Carbinol]: under setting [2], the EC50 is more than 500 µM.

Take `O=c1c(OC2OC(CO)C(O)C(O)C2O)c(-c2ccc(O)c(O)c2)oc2cc(O)cc(O)c12` (stereo not shown) [Isoquercetrin]: the EC50 by setting is: under setting [2], 52 µM; under setting [3], 53 µM.

For the compound `O=c1c(O)c(-c2ccc(O)cc2)oc2cc(O)cc(O)c12` [Kaempferol], the EC50 is 467 µM under setting [2] and 467 µM under setting [3].

Turning to `C=CC(C)(O)CCC=C(C)C` (stereo not shown) [Linalool], the EC50 result under setting [1] is listed as “does not bind*”.

As for `O=c1cc(-c2ccc(O)c(O)c2)oc2cc(O)cc(O)c12` [Luteolin], the EC50 amounted to 4 µM under setting [2] and 4 µM under setting [3].

Turning to `O=c1c(O)c(-c2cc(O)c(O)c(O)c2)oc2cc(O)cc(O)c12` [Myricetin], the EC50 under setting [2] is 53 µM.

`O=C1C[C@@H](c2ccc(O)cc2)Oc2cc(O)cc(O)c21` [Narigenin]: the concentration for a half-maximal effect (EC50) under setting [3] was 81 µM.

Take `CC(C(=O)c1ccc(O)cc1O)c1ccc(O)cc1` (stereo not shown) [ODMA, O-Desmethyl-angolenain]: the EC50 under setting [2] was found to be 67 µM.

Take `C=CC(C)=CCC=C(C)C` [Ocimene]: the EC50 entry under setting [1] was “does not bind*”.

On to `COc1ccc(-c2coc3cc(O[C@@H]4O[C@H](CO)[C@@H](O)[C@H](O)[C@H]4O)ccc3c2=O)cc1` [Ononin], for which the EC50 entry under setting [1] is reported as “does not bind*”.

On to `O=C(CCc1ccc(O)cc1)c1c(O)cc(O)cc1O` [Phloretin], for which, under setting [2], the EC50 stood at 20 µM.

For the compound `O=C(CCc1ccc(O)cc1)c1c(O)cc(O)cc1O[C@@H]1O[C@H](CO)[C@@H](O)[C@H](O)[C@H]1O` [Phloridzin], the EC50 under setting [2] was more than 500 µM.

Consider `Oc1cc(O)c2c(c1)O[C@H](c1ccc(O)c(O)c1)[C@H](O)[C@H]2c1c(O)cc(O)c2c1O[C@H](c1ccc(O)c(O)c1)[C@H](O)C2` [Procyanidin B2], for which, under setting [1], the EC50 entry is listed as “does not bind*”.

Turning to `O=C(O)c1ccc(O)c(O)c1` [Protocatechuic acid], under setting [1], the 50% effective concentration (EC50) result was “does not bind*”.

`COc1cc(O)c2c(=O)c(-c3ccc(O)cc3)coc2c1` [Prunetin]: the concentration giving a half-maximal response (EC50) entry under setting [1] was “does not bind*”.

Consider `O=c1c(-c2ccc(O)cc2)coc2c([C@@H]3O[C@H](CO)[C@@H](O)[C@H](O)[C@H]3O)c(O)ccc12` [Puerarin], for which the EC50 entry under setting [1] is reported as “does not bind*”.

Take `O=c1c(O)c(-c2ccc(O)c(O)c2)oc2cc(O)cc(O)c12` [Quercetin]: the 50% effective concentration (EC50) runs as follows: under setting [2], 2.6 µM; under setting [3], 2.6 µM.

`O=C(/C=C/c1ccc(O)c(O)c1)O[C@H](Cc1ccc(O)c(O)c1)C(=O)O` [Rosmarinic acid]: the EC50 runs as follows: under setting [2], 7.8 µM; under setting [3], 7.8 µM.

The compound `C=CCc1ccc2c(c1)OCO2` [Safrol] returned an EC50 of 2250 µM.

Consider `O=C(/C=C/c1ccc(O)c2c1[C@H](C(=O)O[C@H](Cc1ccc(O)c(O)c1)C(=O)O)[C@@H](c1ccc(O)c(O)c1)O2)O[C@H](Cc1ccc(O)c(O)c1)C(=O)O` [Salvianolic acid B], for which the concentration giving a half-maximal response (EC50) under setting [3] was determined as 292 µM.

As for `c1cc2c(cc1[C@H]1OC[C@H]3[C@@H]1CO[C@@H]3c1ccc3c(c1)OCO3)OCO2` [Sesamin], the EC50 entry (Table 1, result in words) was “does not bind”.

For `COc1ccc(-c2coc3cc(O[C@@H]4O[C@H](CO)[C@@H](O)[C@H](O)[C@H]4O)cc(O)c3c2=O)cc1` [Sissotrin], under setting [1], the EC50 entry is on record as “does not bind*”.

`O=C1c2c(O)cc(O)cc2O[C@H](c2ccc(O)c(O)c2)[C@H]1O` [Taxifolin]: the EC50 under setting [3] was found to be 275 µM.

Consider `Cc1ccc(C(C)C)c(O)c1` [Thymol], for which the EC50 (EC50, Table 1, tested substances) was 695 µM and the EC50 (EC50, Table 3, active substances in Oregano) turned out to be 695 µM.

With `C[C@H]1[C@H](C)CC[C@]2(C(=O)O)CC[C@]3(C)C(=CC[C@@H]4[C@@]5(C)CC[C@H](O)C(C)(C)[C@@H]5CC[C@]43C)[C@H]12` [Ursolsäure], the EC50 under setting [3] was more than 500 µM.

Consider `COc1cc(C(=O)O)ccc1O` [Vanillic acid], for which the EC50 under setting [3] was more than 500 µM.

As for `O=c1cc(-c2ccc(O)cc2)oc2c([C@@H]3O[C@H](CO)[C@@H](O)[C@H](O)[C@H]3O)c(O)cc(O)c12` [Vitexin], the EC50 under setting [3] came out at 156 µM.

`O=C(O)/C=C/c1ccccc1O` [o-Coumaric acid]: the 50% effective concentration (EC50) entry under setting [1] is listed as “does not bind*”.

As for `O=C(O)/C=C/c1ccc(O)cc1` [p-Coumaric acid], the EC50 is, setting by setting: under setting [2], more than 500 µM; under setting [3], more than 500 µM.

With `Cc1ccc(C(C)C)cc1` [p-Cymene], the EC50 result under setting [1] was “does not bind*”.

In the case of `C/C1=C\CC/C(C)=C/CC(C)(C)/C=C/C1` [α-Humulene], the EC50 entry under setting [1] is “does not bind*”.

`C=C1CC/C=C(\C)CC[C@@H]2[C@@H]1CC2(C)C` [β-Caryophyllene]: under setting [1], the 50% effective concentration (EC50) entry is “does not bind*”.
